Data from US12685790B2, “Stable, concentrated radiopharmaceutical composition” (NOVARTIS AG, priority 2019, dated 2026).

What was measured:
GRPR = GRPR (Homo sapiens, UniProt P30550); conditions: non-clinical models; cited from earlier work
[1] = target: GRPR expressed in breast, prostate, and Gastro Intestinal Stromal Tumor (GIST) (Homo sapiens, UniProt P30550); conditions: non-clinical models; cited from earlier work
[2] = Radiochemical purity (RCP) stability of 177Lu-NeoB drug product formulations over shelf life (72 h), lab-scale batches; format: physicochemical; conditions: Table 7: gentisic acid 1000 μg/mL, ascorbic acid 15000 μg/mL, Kolliphor HS 15 100 μg/mL, about 200 mCi, 10 mCi/mL; end of shelf life (72 hours)
Procedure: “Radiochemical purity”: is that percentage of the stated radionuclide that is present in the stated chemical or biological form. Radiochromatography methods, such as HPLC method or instant Thin Layer Chromatography method (ITLC), are the most commonly accepted methods for determining radiochemical purity in the nuclear pharmacy.
The stability of the ^177Lu-labelled product over 72 hours with the same antioxidant amount present in the Lutathera formulation. In particular, the following conditions are reproduced: […] step; • Kolliphor HS 15:1 mg added before the labelling step; • Peptide: Lu ratio≥1.5; […] during the formulation step; • Final volumetric Activity 10 mCi/mL; • Final pH 4-6; • Reaction buffer: Acetic acid/acetate buffer;
The radiolabelling tests are carried out both manually and automatically by using the MiniAlO synthesizer. The synthesis procedure is developed as follows: • 1. Transferring of ^177LuCl3 into reactor; • 2. Transferring of the reaction buffer into reactor. The reaction buffer is composed of sodium acetate buffer and gentisic acid. The acetate buffer allows to maintain the labelling pH between 4-5, while the gentisic acid protects the peptide from radiolysis during the labelling step; • 3. Addition of the NeoB1 solution containing Kolliphor HS 15 into reactor; • 4. Heating at 95° C. for 5 minutes; […]

Sequence of GRPR (P30550 whole entry): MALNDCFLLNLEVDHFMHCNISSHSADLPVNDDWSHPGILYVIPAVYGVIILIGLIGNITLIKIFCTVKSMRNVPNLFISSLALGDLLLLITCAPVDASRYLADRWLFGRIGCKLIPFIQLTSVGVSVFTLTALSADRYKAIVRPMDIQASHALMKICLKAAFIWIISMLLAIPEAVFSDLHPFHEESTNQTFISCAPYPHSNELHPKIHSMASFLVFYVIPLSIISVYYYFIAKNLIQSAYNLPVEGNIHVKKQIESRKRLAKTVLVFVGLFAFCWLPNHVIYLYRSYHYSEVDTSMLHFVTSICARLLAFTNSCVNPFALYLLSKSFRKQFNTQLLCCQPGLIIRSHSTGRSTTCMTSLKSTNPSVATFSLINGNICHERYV
Sequence of GRPR expressed in breast, prostate, and Gastro Intestinal Stromal Tumor (GIST) (P30550 whole entry): as above

Row | SMILES | degree of internalization upon binding to the specific receptor (GRPR) | affinity to the GRPR [1] | Radiochemical purity (%) at end of shelf life [2]
1 | CC(C)CC(CC(C)C)NC(=O)[C@H](Cc1cnc[nH]1)NC(=O)CNC(=O)[C@@H](NC(=O)[C@H](C)NC(=O)[C@H](Cc1c[nH]c2ccccc12)NC(=O)[C@H](CCC(N)=O)NC(=O)[C@@H](Cc1ccccc1)NC(=O)COCC(=O)Nc1ccc(CNC(=O)CN2CCN(CC(=O)O)CCN(CC(=O)O)CCN(CC(=O)O)CC2)cc1)C(C)C [[^68Ga]-NeoB, metal not drawn] | low degree of internalization | high affinity | –
2 | CC(C)CC(CC(C)C)NC(=O)[C@H](Cc1cnc[nH]1)NC(=O)CNC(=O)[C@@H](NC(=O)[C@H](C)NC(=O)[C@H](Cc1c[nH]c2ccccc12)NC(=O)[C@H](CCC(N)=O)NC(=O)[C@@H](Cc1ccccc1)NC(=O)COCC(=O)Nc1ccc(CNC(=O)CN2CCN(CC(=O)O)CCN(CC(=O)O)CCN(CC(=O)O)CC2)cc1)C(C)C [[^177Lu]-NeoB, metal not drawn] | – | – | over 95%
